Patent US20130267474A1, “NOVEL PHYTOCHEMICALS FROM EXTRACTS OF MAPLE SYRUPS AND MAPLE TREES AND USES THEREOF” (UNIVERSITY OF RHODE ISLAND, priority 2010, published 2013)
Where two headings read alike, the source gives them in different places.

Assays:
[1] = tested on: Caco-2 (human epithelial colorectal adenocarcinoma); test: MTS cytotoxicity / antiproliferative assay; format: cell-based; settings: for Caco-2 48 h IC50 / Caco-2 72 h IC50: ginnalins
Description: (§1) Cell lines included three human colon cancer cells: HT-29 (human colon adenocarcinoma), HCT116 (human colon carcinoma) and Caco-2 (human epithelial colorectal adenocarcinoma). In addition, normal human colon cells are included: CCD-^18Co (human colon fibroblasts). All cell lines are obtained from the American Type Culture Collection (ATCC, Rockville, Md., USA) and maintained at the University of Rhode Island.
(§2) The assay is carried out to measure the IC50 values for samples. […] Test samples and a positive control, etoposide 4 mg/mL (Sigma), are solubilized in DMSO by sonication. […] Control wells are also included on all plates. […] Each point on the curve is […]. Data (see tables 6 to 9) are expressed as mean±SE for three replications on each cell line.

[2] = tested on: CCD-18Co (normal human colon fibroblasts); test: MTS cytotoxicity / antiproliferative assay; format: cell-based; settings: 72 h; for CCD-18Co 72 h IC50: ginnalins
Description: as §1, §2

[3] = tested on: HCT-116 (human colon carcinoma); test: MTS cytotoxicity / antiproliferative assay; format: cell-based; settings: for HCT-116 48 h IC50 / HCT-116 72 h IC50: ginnalins
Description: as §1, §2

[4] = tested on: HT-29 (human colon adenocarcinoma); test: MTS cytotoxicity / antiproliferative assay; format: cell-based; settings: for HT-29 48 h IC50 / HT-29 72 h IC50: ginnalins
Description: as §1, §2

[5] = DPPH radical scavenging (antioxidant) assay; format: biochemical; settings: Table 10; mean ± standard deviation; 30 min, 515 nm; read-out: IC50 (μM), DPPH radical scavenging
Description: The DPPH radical scavenging activity of ascorbic acid (vitamin C) and the synthetic commercial antioxidant, butylated hydroxytoluene (BHT) are also assayed as positive controls (see Table 10). […] Absorbance is determined after 30 min at 515 nm, and the scavenging capacity (SC) is calculated as SC %=[(A0−A1/A0)]×100, where A0 is the absorbance of the reagent blank and A1 is the absorbance of the test samples. The control contained all reagents except the compounds, and all tests are performed in triplicate.
Absorbance is determined after 30 min at 515 nm, and the scavenging capacity (SC) is calculated as SC %=[(A0−A1/A0)]×100 where A0 is the absorbance of the reagent blank, and A1 is the absorbance with test samples. The control contained all reagents except the compounds and all tests are performed in triplicate.

[6] = Homo sapiens, Caco-2, 48 h, read-out: Caco-2 48 h(IC50), Table 6 maple compounds, 48 h, unit inferred
[7] = Homo sapiens, Caco-2, 72 h, Table 6 maple compounds, 72 h, unit inferred, read-out: Caco-2 72 h(IC50)
[8] = Homo sapiens, CCD-18Co, Table 6 maple compounds, unit inferred, read-out: CCD-18Co 72 h(IC50)
[9] = Homo sapiens, HCT-116, 48 h, read-out: HCT-116 48 h(IC50), Table 6 maple compounds, 48 h, unit inferred
[10] = Homo sapiens, HCT-116, 72 h, Table 6 maple compounds, 72 h, unit inferred, read-out: HCT-116 72 h(IC50)
[11] = Homo sapiens, HT-29, 48 h, read-out: HT-29 48 h(IC50), Table 6 maple compounds, 48 h, unit inferred
[12] = Homo sapiens, HT-29, 72 h, Table 6 maple compounds, 72 h, unit inferred, read-out: HT-29 72 h(IC50)
[13] = Homo sapiens, Caco-2, 72 h, 72 h, pure isolated compounds, read-out: Antiproliferative activity Caco-2 72 h (IC50)
[14] = Homo sapiens, HCT-116, 48 h, read-out: Antiproliferative activity HCT-116 48 h (IC50), 48 h, pure isolated compounds
[15] = Homo sapiens, HCT-116, 72 h, 72 h, pure isolated compounds, read-out: Antiproliferative activity HCT-116 72 h (IC50)
[16] = Homo sapiens, HCT-116, 72 h, 72 h, range given for the group, unit inferred, read-out: IC50 against HCT-116 cells at 72 h (moderately active group)
[17] = Homo sapiens, HT-29, 48 h, read-out: Antiproliferative activity HT-29 48 h (IC50), 48 h, pure isolated compounds
[18] = Homo sapiens, HT-29, 72 h, 72 h, pure isolated compounds, read-out: Antiproliferative activity HT-29 72 h (IC50)
[19] = Homo sapiens, Caco-2, 48 h, read-out: Antiproliferative activity Caco-2 48 h (IC50), 48 h, pure isolated compounds
[20] = Homo sapiens, CCD-18Co, pure isolated compounds, read-out: Antiproliferative activity CCD-8Co 72 h (IC50)
[21] = Homo sapiens, HCT-116, 72 h, 72 h, range given for the group, read-out: IC50 against HCT-116 cells at 72 h (activity ranking)

Row | Compound | IC50 [1, 7] [µM] | IC50 [3, 9] [µM] | IC50 [3, 10] [µM] | IC50 [4, 12] [µM] | IC50 [5] [µM] | IC50 [1, 13] [µM] | IC50 [3, 14] [µM] | IC50 [3, 15] [µM] | IC50 [4, 17] [µM] | IC50 [4, 18] [µM] | IC50 [3, 21] [µM] | other results
1 | O=C(OC[C@H]1OC[C@H](OC(=O)c2cc(O)c(O)c(O)c2)[C@@H](O)[C@@H]1O)c1cc(O)c(O)c(O)c1 [Ginnalin A] |  |  |  |  |  |  |  |  |  |  |  | Caco-2 48 h IC50 ([1]; 48 h): 28.8 ± 1.8 µg/mL; Caco-2 72 h IC50 ([1]; 72 h): 21.7 ± 1.0 µg/mL; CCD-18Co 72 h IC50 [2]: 46.6 ± 3.6 µg/mL; HCT-116 48 h IC50 ([3]; 48 h): 21.5 ± 1.6 µg/mL; HCT-116 72 h IC50 ([3]; 72 h): 16.3 ± 2.1 µg/mL; HT-29 48 h IC50 ([4]; 48 h): 31.0 ± 2.6 µg/mL; HT-29 72 h IC50 ([4]; 72 h): 24.1 ± 1.3 µg/mL
2 | COc1cc(C2Oc3c(OC)cc(CCCO)cc3C2CO)cc(OC)c1O (stereo not drawn) [compound 4] | 70.9 | 78 | 59.1 | 68.2 |  |  |  |  |  |  |  | IC50 [1, 6]: 85 µM; IC50 [2, 8]: 99.6 µM; IC50 [4, 11]: 88.7 µM
3 | COc1ccc(C2OC(=O)C(O)(Cc3ccc(OC4OC(C)C(O)C(O)C4O)c(OC)c3)C2CO)cc1OC [compound 7, [3-[4-[(6-deoxy-α-L-mannopyranosyl)oxy]-3-methoxyphenyl]methyl]-5-(3,4-dimethoxyphenyl)dihydro-3-hydroxy-4-(hydroxymethyl)-2(3H)-furanone] | 96.8 |  | 103 | 98.2 | 740.2 ± 3.4 |  |  |  |  |  |  | 
4 | COc1cc2ccc(=O)oc2c(O)c1O [compound 9, fraxetin] | 101 | 112 | 84.5 | 93.4 | 479 ± 42.1 | 101 ± 1.3 | 112 ± 1.8 | 84.5 ± 1.6 | 101 ± 1.2 | 93.4 ± 2.6 |  | IC50 [3, 16]: 75 to 85 µM; IC50 [4, 11]: 101 µM
5 | COc1cc(/C=C/c2ccc(O)c(OC)c2)ccc1O [compound 10, (E)-3,3′-dimethoxy-4,4′-dihydroxystilbene] | 93.1 |  |  |  | 578.5 ± 1.3 |  |  |  |  |  |  | 
6 | O=C(CO)c1ccc(O)c(O)c1 [compound 11, 2-hydroxy-3′,4′-dihydroxyacetophenone] | 86 |  |  |  | 422.9 ± 2.4 |  |  |  |  |  |  | IC50 [1, 6]: 92.5 µM
7 | O=Cc1ccc(O)c(O)c1 [compound 14, catechaldehyde] | 58.9 | 63.3 | 52.9 | 63.9 |  | 58.9 ± 1.9 | 63.3 ± 1.3 | 52.9 ± 1.4 | 71.6 ± 1.5 | 63.9 ± 1.6 | 42 to 67 | IC50 [1, 19]: 73.2 ± 1.3 µM; IC50 [1, 6]: 73.2 µM; IC50 [2, 8]: 126 µM; IC50 [2, 20]: 126 ± 4.6 µM; IC50 [4, 11]: 71.6 µM
8 | COc1cc(C=O)ccc1O [compound 15, vanillin] |  | 120 | 110 | 114 | 1810 ± 266 |  | 120.3 ± 1 | 110 ± 1.7 |  | 114 ± 1.5 | 94 to 110 | 
9 | COc1cc(/C=C/CO)cc(OC)c1O [compound 20, syringenin] |  | 124 | 108 | 113 | 322 ± 31.9 |  | 123.5 ± 1.1 | 108 ± 1.5 | 126 ± 3 | 113 ± 1.5 | 94 to 110 | IC50 [4, 11]: 126 µM
10 | COc1cc(C(=O)C(O)CO)ccc1O (stereo not drawn) [compound 22, C-veratroylglycol] | 90.8 | 82.9 | 66.7 | 88.6 | 138 ± 28.2 | 90.8 ± 1 | 82.9 ± 2.1 | 66.7 ± 1.5 | 96 ± 1.5 | 88.6 ± 1.3 | 42 to 67 | IC50 [1, 19]: 101 ± 1.6 µM; IC50 [1, 6]: 101 µM; IC50 [4, 11]: 96 µM
11 | Oc1ccccc1O [compound 23, catechol] |  |  |  |  |  | 64.1 ± 2.5 | 86 ± 2.4 | 63 ± 1.3 | 99.4 ± 2.1 | 70.3 ± 2 | 42 to 67 | IC50 [1, 19]: 71.5 ± 2.3 µM; IC50 [2, 20]: 115 ± 2.7 µM
12 | OCCc1ccc(O)cc1 [compound 50, tyrosol] |  |  |  |  |  | 100 ± 2.6 | 115 ± 1.5 | 94.3 ± 1.8 | 128 ± 2.3 | 114 ± 1.8 | 94 to 110 | IC50 [1, 19]: 112 ± 1.9 µM; IC50 [2, 20]: 145 ± 4.1 µM
13 | COc1cc(C(CO)C(c2ccc(O)c(OC)c2)c2ccc(O)c(OC)c2)ccc1O (stereo not drawn) [compound 54, Quebecol] |  |  |  |  |  | 78.5 ± 1.4 | 95.3 ± 0.6 | 76.2 ± 1.2 | 103 ± 1.7 | 86.1 ± 0.8 |  | IC50 [1, 19]: 98.2 ± 1.5 µM; IC50 [2, 20]: 120 ± 1.5 µM; IC50 [3, 16]: 75 to 85 µM
14 | O=C(OC[C@H]1OC[C@H](O)[C@@H](O)[C@@H]1O)c1cc(O)c(O)c(O)c1 [compound 71, ginnalin-B] |  |  |  |  |  |  |  |  |  |  |  | Caco-2 48 h IC50 ([1]; 48 h): 31.1 ± 1.9 µg/mL; Caco-2 72 h IC50 ([1]; 72 h): 22.6 ± 1.9 µg/mL; IC50 ([1]; Table 6 maple compounds, 72 h, unit inferred, read-out: Caco-2 72 h(IC50)): 71.6 µM; IC50 ([1]; read-out: Caco-2 48 h(IC50), Table 6 maple compounds, 48 h, unit inferred): 98.7 µM; CCD-18Co 72 h IC50 [2]: 47.1 ± 5.3 µg/mL; IC50 ([2]; Table 6 maple compounds, unit inferred, read-out: CCD-18Co 72 h(IC50)): 107 µM; HCT-116 48 h IC50 ([3]; 48 h): 25.1 ± 1.8 µg/mL; HCT-116 72 h IC50 ([3]; 72 h): 20.0 ± 2.0 µg/mL; IC50 ([3]; Table 6 maple compounds, 72 h, unit inferred, read-out: HCT-116 72 h(IC50)): 50.9 µM; IC50 ([3]; read-out: HCT-116 48 h(IC50), Table 6 maple compounds, 48 h, unit inferred): 66.8 µM; HT-29 48 h IC50 ([4]; 48 h): 36.2 ± 1.5 µg/mL; HT-29 72 h IC50 ([4]; 72 h): 27.3 ± 0.6 µg/mL; IC50 ([4]; Table 6 maple compounds, 72 h, unit inferred, read-out: HT-29 72 h(IC50)): 86.5 µM; IC50 ([4]; read-out: HT-29 48 h(IC50), Table 6 maple compounds, 48 h, unit inferred): 98.9 µM
15 | dehydroconiferyl alcohol [compound 3] |  |  |  |  | 925 ± 179 |  |  |  |  |  |  | 
16 | gallic acid [compound 17] |  |  |  |  | 703 ± 141 |  |  |  |  |  |  | 
17 | lyoniresinol [compound 1] |  |  |  |  | 946 ± 58.5 |  |  |  |  |  |  | 
18 | syringaldehyde [compound 16] |  |  |  |  | 2880 ± 44 |  |  |  |  |  |  | 
19 | syringic acid [compound 19] |  |  |  |  | 258 ± 33.8 |  |  |  |  |  |  | 
20 | trimethyl gallic acid methyl ester [compound 18] |  |  |  |  | 112 ± 5.1 |  |  |  |  |  |  | 
